# In patent publication US20120245137A1 (Zalicus Pharmaceuticals Ltd., priority 2009, published 2012):
# Target: N-type calcium channel subunits (α1B, α2δ, and β3a) (Homo sapiens, UniProt Q00975)
# Assay: Block of Cav2.2 channel, whole cell voltage clamp, manual and PatchXpress
# Assay type: cell-based
# Settings: Table 5; table follows Assay Example 3 (whole cell voltage clamp / PatchXpress); assay not given
# Protocol: Cells are grown either on poly-D-lysine coated coverglass (manual EP) or in TIS culture plates (PatchXpress). For the PatchExpress, cells are released from the flask using trypsin. In both cases, the […] solution is (in mM): 130 […], 10 EGTA, 10 HEPES, 2 MgCl2, 3 MgATP, pH 7.3 with CsOH.
# Microelectrodes are fabricated from borosilicate glass and fire-polished. […] The reference electrode is a silver-silver chloride pellet. Voltages are not corrected for the liquid junction potential between the internal and external solutions and leak is subtracted using the P/n procedure. Solutions are applied to cells by bath perfusion via gravity. The experimental chamber volume is—0.2 mL. and the perfusion rate is 0.5-2 mL/min. Flow of suction through the chamber is maintained at all times. Measurement of current amplitudes is performed with […] software (HEKA Elektronik).
# PatchXpress (Molecular Devices) is a 16-well whole-cell automated patch clamp device that operates asynchronously with fully integrated fluidics. […] Capacitance and series resistance compensation is automated. No correction for liquid junction potentials is employed. Leak is subtracted using the P/n procedure. Compounds are added to cells with a pipettor from a 96-well compound plate. Voltage protocols and the recording of membrane currents are performed using the PatchXpress software/hardware system. Current amplitudes are calculated with DataXpress software.
# In both manual and automated patch clamp, cells are voltage clamped at […] or −90 m V and 50 ms pulses to +20 mV are applied every 15 sec (0.067 Hz). Compounds are added in escalating doses to measure % inhibition. Percent inhibition is calculated from the ratio of the curerent amplitude in the presence and absence of compound. When multiple doses are achieved per cell, IC50 values are calculated.
# N-type calcium channel subunits (α1B, α2δ, and β3a), sequence (Q00975 whole entry): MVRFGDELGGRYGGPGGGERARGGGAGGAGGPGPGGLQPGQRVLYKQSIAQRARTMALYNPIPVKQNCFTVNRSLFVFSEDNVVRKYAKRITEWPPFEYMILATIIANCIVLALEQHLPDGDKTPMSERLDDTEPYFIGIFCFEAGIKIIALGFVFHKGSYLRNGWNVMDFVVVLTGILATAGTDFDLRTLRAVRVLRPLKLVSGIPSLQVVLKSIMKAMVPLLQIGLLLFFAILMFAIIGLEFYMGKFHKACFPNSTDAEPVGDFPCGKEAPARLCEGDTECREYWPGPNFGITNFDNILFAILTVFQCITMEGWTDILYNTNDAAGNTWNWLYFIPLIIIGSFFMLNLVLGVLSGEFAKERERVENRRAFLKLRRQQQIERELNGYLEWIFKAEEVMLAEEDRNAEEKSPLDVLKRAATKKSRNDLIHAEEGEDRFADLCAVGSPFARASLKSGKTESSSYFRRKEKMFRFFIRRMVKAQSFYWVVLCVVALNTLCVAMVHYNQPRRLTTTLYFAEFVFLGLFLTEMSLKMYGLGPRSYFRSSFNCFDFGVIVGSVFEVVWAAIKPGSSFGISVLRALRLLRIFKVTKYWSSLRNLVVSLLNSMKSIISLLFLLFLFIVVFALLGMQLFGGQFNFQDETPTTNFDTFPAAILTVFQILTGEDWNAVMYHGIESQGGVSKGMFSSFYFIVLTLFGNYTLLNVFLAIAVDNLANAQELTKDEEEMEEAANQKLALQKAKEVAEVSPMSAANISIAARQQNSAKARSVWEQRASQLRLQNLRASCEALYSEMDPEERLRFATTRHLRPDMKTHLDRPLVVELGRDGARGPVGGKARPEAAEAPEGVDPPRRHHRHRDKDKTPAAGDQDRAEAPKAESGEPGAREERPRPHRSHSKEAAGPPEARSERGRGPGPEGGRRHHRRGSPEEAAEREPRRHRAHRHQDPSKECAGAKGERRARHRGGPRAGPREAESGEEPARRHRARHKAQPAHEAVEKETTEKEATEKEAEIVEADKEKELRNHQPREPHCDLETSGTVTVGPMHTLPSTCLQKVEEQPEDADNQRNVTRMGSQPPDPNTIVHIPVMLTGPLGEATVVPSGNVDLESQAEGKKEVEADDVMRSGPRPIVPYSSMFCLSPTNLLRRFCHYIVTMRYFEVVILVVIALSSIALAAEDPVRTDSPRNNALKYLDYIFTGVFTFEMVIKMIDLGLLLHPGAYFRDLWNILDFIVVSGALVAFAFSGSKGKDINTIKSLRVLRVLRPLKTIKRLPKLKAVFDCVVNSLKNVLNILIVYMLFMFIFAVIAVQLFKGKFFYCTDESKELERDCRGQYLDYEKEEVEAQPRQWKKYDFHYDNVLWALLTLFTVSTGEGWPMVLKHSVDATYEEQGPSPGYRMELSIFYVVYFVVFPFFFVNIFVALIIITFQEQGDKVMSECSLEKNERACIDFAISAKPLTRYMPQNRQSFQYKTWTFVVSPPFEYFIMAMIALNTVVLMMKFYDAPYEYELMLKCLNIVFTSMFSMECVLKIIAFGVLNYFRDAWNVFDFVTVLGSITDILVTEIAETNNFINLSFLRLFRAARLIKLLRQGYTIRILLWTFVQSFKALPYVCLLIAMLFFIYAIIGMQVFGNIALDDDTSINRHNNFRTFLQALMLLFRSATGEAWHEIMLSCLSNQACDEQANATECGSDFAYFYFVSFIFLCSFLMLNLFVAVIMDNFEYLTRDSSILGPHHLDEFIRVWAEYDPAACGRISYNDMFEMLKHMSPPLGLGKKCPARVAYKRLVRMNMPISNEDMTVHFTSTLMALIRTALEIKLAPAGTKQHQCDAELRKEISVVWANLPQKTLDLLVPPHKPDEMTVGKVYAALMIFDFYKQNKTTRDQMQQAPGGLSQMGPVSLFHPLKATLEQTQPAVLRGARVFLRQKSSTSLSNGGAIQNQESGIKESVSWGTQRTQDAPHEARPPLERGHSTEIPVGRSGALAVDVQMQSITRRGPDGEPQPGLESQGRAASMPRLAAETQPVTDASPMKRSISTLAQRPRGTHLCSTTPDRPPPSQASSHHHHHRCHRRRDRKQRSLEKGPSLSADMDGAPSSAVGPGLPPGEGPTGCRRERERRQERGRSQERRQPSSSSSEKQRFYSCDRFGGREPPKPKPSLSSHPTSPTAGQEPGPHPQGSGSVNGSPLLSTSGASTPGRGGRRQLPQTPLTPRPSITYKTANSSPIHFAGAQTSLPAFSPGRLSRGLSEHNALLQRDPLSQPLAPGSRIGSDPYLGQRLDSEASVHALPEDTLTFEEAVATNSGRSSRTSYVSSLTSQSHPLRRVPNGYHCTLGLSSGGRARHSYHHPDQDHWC
# N-type calcium channel subunits (α1B, α2δ, and β3a), sequence (P54289 25-1103 partner): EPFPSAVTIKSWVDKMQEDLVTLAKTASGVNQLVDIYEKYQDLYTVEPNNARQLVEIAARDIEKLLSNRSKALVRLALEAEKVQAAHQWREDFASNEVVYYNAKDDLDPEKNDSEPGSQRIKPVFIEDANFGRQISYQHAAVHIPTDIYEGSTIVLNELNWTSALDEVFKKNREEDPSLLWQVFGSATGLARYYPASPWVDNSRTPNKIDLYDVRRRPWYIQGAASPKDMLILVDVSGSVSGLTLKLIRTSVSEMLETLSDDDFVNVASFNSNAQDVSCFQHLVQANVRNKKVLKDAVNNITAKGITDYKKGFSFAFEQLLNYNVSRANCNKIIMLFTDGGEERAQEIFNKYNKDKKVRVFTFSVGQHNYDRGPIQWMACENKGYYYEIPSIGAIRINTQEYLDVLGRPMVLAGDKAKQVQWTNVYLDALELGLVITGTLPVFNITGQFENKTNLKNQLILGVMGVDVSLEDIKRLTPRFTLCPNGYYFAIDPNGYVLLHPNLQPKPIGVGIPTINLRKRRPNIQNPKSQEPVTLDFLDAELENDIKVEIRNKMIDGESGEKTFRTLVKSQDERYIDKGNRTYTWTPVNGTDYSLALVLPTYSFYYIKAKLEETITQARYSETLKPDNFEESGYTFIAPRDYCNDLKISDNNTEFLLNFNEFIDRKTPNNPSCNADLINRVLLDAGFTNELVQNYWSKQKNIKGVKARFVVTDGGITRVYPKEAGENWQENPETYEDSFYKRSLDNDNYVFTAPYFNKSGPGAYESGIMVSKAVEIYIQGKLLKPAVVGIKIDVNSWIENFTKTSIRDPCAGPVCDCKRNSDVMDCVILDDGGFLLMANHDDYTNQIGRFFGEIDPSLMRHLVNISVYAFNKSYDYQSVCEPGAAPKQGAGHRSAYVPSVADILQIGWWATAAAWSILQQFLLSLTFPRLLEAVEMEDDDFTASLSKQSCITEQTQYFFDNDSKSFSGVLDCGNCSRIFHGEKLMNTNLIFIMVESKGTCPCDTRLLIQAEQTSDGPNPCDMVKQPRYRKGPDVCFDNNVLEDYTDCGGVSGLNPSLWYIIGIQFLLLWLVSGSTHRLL
# N-type calcium channel subunits (α1B, α2δ, and β3a), sequence (P54284 whole entry partner): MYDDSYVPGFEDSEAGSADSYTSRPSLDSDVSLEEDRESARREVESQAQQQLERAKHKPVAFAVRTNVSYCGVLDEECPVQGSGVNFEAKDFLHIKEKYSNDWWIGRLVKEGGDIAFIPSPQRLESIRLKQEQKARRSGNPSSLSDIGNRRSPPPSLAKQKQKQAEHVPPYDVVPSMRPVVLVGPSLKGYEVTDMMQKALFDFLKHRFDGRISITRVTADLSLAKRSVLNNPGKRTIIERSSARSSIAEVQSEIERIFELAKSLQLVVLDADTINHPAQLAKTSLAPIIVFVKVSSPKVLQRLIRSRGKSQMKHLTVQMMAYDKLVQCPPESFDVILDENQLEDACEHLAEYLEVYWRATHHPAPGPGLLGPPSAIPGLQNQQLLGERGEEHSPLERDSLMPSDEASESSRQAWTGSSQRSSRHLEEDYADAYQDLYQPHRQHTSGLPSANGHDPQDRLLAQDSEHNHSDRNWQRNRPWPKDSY
row,IC50 [nM],Compound
1,5930,"O=C(N[C@H]1CC[C@@H](S(=O)(=O)c2cccc(C(F)(F)F)c2)CC1)C1CCOCC1 [Compound 44, N-((1S,4S)-4-(3-(trifluoromethyl)phenylsulfonyl)cyclohexyl)tetrahydro-2H-pyran-4-carboxamide]"
2,4720,"O=C(CN[C@H]1CC[C@@H](S(=O)(=O)c2cccc(C(F)(F)F)c2)CC1)N1CCOCC1 [Compound 53, 1-morpholino-2-((1S,4S)-4-(3-(trifluoromethyl)phenylsulfonyl)cyclohexylamino)ethanone]"
3,510,"O=C(NC[C@H]1C[C@H](S(=O)(=O)c2cc(F)cc(C(F)(F)F)c2)C1)c1ccc(Cl)c(OC(F)(F)F)c1 [Compound 394, 4-chloro-N-(((1R,3R)-3-(3-fluoro-5-(trifluoromethyl)phenylsulfonyl)cyclobutyl)methyl)-3-(trifluoromethoxy)benzamide]"
4,1330,"O=C(N[C@H]1CC[C@@H](S(=O)(=O)c2cccc(C(F)(F)F)c2)CC1)c1ccnc(Cl)c1 [Compound 194, 2-chloro-N-((1S,4S)-4-(3-(trifluoromethyl)phenylsulfonyl)cyclohexyl)isonicotinamide]"
5,630,"CC(C)([C@H]1C[C@H](NC(=O)c2ncc(C(F)(F)F)cc2S(C)(=O)=O)C1)S(=O)(=O)c1cccc(C(F)(F)F)c1 [Compound 436, 3-(methylsulfonyl)-5-(trifluoromethyl)-N-((1R,3R)-3-(2-(3-(trifluoromethyl)phenylsulfonyl)propan-2-yl)cyclobutyl)picolinamide]"
6,720,"CC(C)([C@H]1C[C@H](NC(=O)c2cnc(C(F)(F)F)nc2)C1)S(=O)(=O)c1cccc(C(F)(F)F)c1 [Compound 437, 2-(trifluoromethyl)-N-((1R,3R)-3-(2-(3-(trifluoromethyl)phenylsulfonyl)propan-2-yl)cyclobutyl)pyrimidine-5-carboxamide]"
7,1220,"CC(C)(C)S(=O)(=O)c1ccsc1C(=O)N[C@H]1CC[C@H](S(=O)(=O)c2cccc(C(F)(F)F)c2)CC1 [Compound 191, 3-(tert-butylsulfonyl)-N-((1R,4R)-4-(3-(trifluoromethyl)phenylsulfonyl)cyclohexyl)thiophene-2-carboxamide]"
8,5610,"2-fluoro-N-((1R,4R)-4-(3- (trifluoromethyl)phenylsulfonyl) cyclohexyl)isonicotinamide [Compound 188]"
9,3570,"CS(=O)(=O)c1cc(C(F)(F)F)ccc1C(=O)NC[C@]1(O)CC[C@@H](S(=O)(=O)c2cccc(C(F)(F)F)c2)CC1 [Compound 233, N-(((1S,4S)-1-hydroxy-4-(3-(trifluoromethyl)phenylsulfonyl)cyclohexyl)methyl)-2-(methylsulfonyl)-4-(trifluoromethyl)benzamide]"
10,80,"CC(C)([C@H]1C[C@H](NC(=O)c2ccc(F)c(Cl)c2)C1)S(=O)(=O)c1cccc(C(F)(F)F)c1 [Compound 441, 3-chloro-4-fluoro-N-((1R,3R)-3-(2-(3-(trifluoromethyl)phenylsulfonyl)propan-2-yl)cyclobutyl)benzamide]"
11,2110,"CC(C)(C)c1nc([C@H]2C[C@H](S(=O)(=O)c3cccc(C(F)(F)F)c3)C2)c[nH]1 [Compound 448, 2-tert-butyl-4-((1R,3R)-3-(3-(trifluoromethyl)phenylsulfonyl)cyclobutyl)-1H-imidazole]"
12,4920,"CC1(NC(=O)c2ccnn2CC(F)(F)F)CCC(S(=O)(=O)c2cccc(C(F)(F)F)c2)CC1 (stereo not drawn) [Compound 314, N-(1-methyl-4-(3-(trifluoromethyl)phenylsulfonyl)cyclohexyl)-1-(2,2,2-trifluoroethyl)-1Hpyrazole-5-carboxamide]"
13,1540,"O=C(Nc1ccc(Oc2ccc(F)cc2)cc1)[C@H]1C[C@H](S(=O)(=O)c2cccc(C(F)(F)F)c2)C1 [Compound 406, (1R,3R)-N-(4-(4-fluorophenoxy)phenyl)-3-(3-(trifluoromethyl)phenylsulfonyl)cyclobutane carboxamide]"
14,1010,"O=C(CN[C@H]1C[C@H](S(=O)(=O)c2cccc(C(F)(F)F)c2)C1)NC1CCCCC1 [Compound 216, N-cyclohexyl-2-(trans-3-(3-(trifluoromethyl)phenylsulfonyl)cyclobutylamino)acetamide]"
15,1030,"COc1cc(C(=O)NCC2(C)CCC(F)(S(=O)(=O)c3cccc(C(F)(F)F)c3)CC2)ccn1 (stereo not drawn) [Compound 157, N-((4-fluoro-1-methyl-4-(3-(trifluoromethyl)phenylsulfonyl)cyclohexyl)methyl)-2-methoxyisonicotinamide]"

# More lines, now with the values behind:
row,Compound,IC50 [nM]
1,"O=C(NC[C@]1(O)CC[C@@H](S(=O)(=O)c2cccc(C(F)(F)F)c2)CC1)c1cc(C(F)(F)F)ccn1 [Compound 237, N-(((1S,4S)-1-hydroxy-4-(3-(trifluoromethyl)phenylsulfonyl)cyclohexyl)methyl)-4-(trifluoromethyl)picolinamide]",4560
2,"O=S(=O)(c1cccc(C(F)(F)F)c1)[C@H]1C[C@H](c2c[nH]c(-c3ccc(C(F)(F)F)nc3)n2)C1 [Compound 445, 2-(trifluoromethyl)-5-(4-((1R,3R)-3-(3-(trifluoromethyl)phenylsulfonyl)cyclobutyl)-1H-imidazol-2-yl)pyridine]",200
3,"CC([C@H]1C[C@H](NC(=O)c2ncc(C(F)(F)F)cc2S(C)(=O)=O)C1)S(=O)(=O)c1cccc(C(F)(F)F)c1 (stereo partly drawn) [Compound 435, 3-(methylsulfonyl)-5-(trifluoromethyl)-N-((1R,3R)-3-((R)-1-(3-(trifluoromethyl)phenylsulfonyl)ethyl)cyclobutyl) picolinamide]",1470
4,O=C(N[C@H]1CC[C@H](S(=O)(=O)c2cccc(C(F)(F)F)c2)CC1)c1ccc(OCC(F)(F)F)nc1 [Compound 184],3110
5,"O=C(N[C@H]1CC[C@@H](S(=O)(=O)c2cccc(C(F)(F)F)c2)CC1)c1cnc(C(F)(F)F)nc1 [Compound 205, 2-(trifluoromethyl)-N-((1S,4S)-4-(3-(trifluoromethyl)phenylsulfonyl)cyclohexyl)pyrimidine-5-carboxamide]",1700
6,"O=C(N[C@H]1CC[C@H](S(=O)(=O)c2cccc(C(F)(F)F)c2)CC1)c1ccc(C(F)(F)F)nc1 [Compound 186, 6-(trifluoromethyl)-N-((1R,4R)-4-(3-(trifluoromethyl)phenylsulfonyl)cyclohexyl)nicotinamide]",5840
7,"O=C(NC[C@]1(O)CC[C@@H](S(=O)(=O)c2cccc(C(F)(F)F)c2)CC1)c1ccc(C(F)(F)F)cn1 [Compound 232, N-(((1S,4S)-1-hydroxy-4-(3-(trifluoromethyl)phenylsulfonyl)cyclohexyl)methyl)-5-(trifluoromethyl)picolinamide]",2660
8,"O=C(NC[C@H]1C[C@H](S(=O)(=O)c2cc(F)cc(C(F)(F)F)c2)C1)c1ccc(F)c(Cl)c1 [Compound 391, 3-chloro-4-fluoro-N-(((1R,3R)-3-(3-fluoro-5-(trifluoromethyl)phenylsulfonyl)cyclobutyl)rnethyl)benzamide]",730
9,"2-chloro-6-(trifluoromethyl)-N- ((1R,4R)-4-(3- (tritluoromethyl)phenylsulfonyl) cyclohexyl)nicotinamide [Compound 187]",7000
10,"O=C(N[C@H]1CC[C@H](S(=O)(=O)c2cccc(C(F)(F)F)c2)CC1)c1ccnc(Cl)c1 [Compound 181, 2-chloro-N-((1R,4R)-4-(3-(trifluoromethyl)phenylsulfonyl)cyclohexyl)isonicotinamide]",1830
11,"O=S(=O)(c1cccc(C(F)(F)F)c1)[C@H]1C[C@H](c2c[nH]c(-c3ccc(C(F)(F)F)cc3)n2)C1 [Compound 443, 2-(4-(trifluoromethyl)phenyl)-4-((1R,3R)-3-(3-(trifluoromethyl)phenylsulfonyI)cyclobutyl)-1H-imidazole]",440
12,"O=C(NC[C@H]1CC[C@@H](S(=O)(=O)c2cccc(C(F)(F)F)c2)CC1)c1cc(C(F)(F)F)n[nH]1 [Compound 34, 3-(trifluoromethyl)-N-(((1S,4S)-4-(3-(trifluoromethyl)phenylsulfonyl)cyclohexyl)methyl)-1H-pyrazole-5-carboxamide]",640
13,"O=C(N[C@H]1CC[C@@](F)(S(=O)(=O)c2cccc(C(F)(F)F)c2)CC1)C1CCCCN1 (stereo partly drawn) [Compound 283, N-((1S,4S)-4-fluoro-4-(3-(trifluorornethyl)phenylsulfonyl)cyclohexyl) piperidine-2-carboxamide]",580
14,"O=C(N[C@H]1CC[C@H](CS(=O)(=O)c2cccc(C(F)(F)F)c2)CC1)c1ccc(OCC(F)(F)F)nc1 [Compound 171, 6-(2,2,2-trifluoroethoxy)-N-((1R,4R)-4-((3-(trifluoromethyl)phenylsulfonyl)methyl)cyclohexyl)nicotinamide]",480
15,"O=C(NC[C@H]1C[C@H](S(=O)(=O)c2cc(F)cc(C(F)(F)F)c2)C1)c1cn2cc(C(F)(F)F)ccc2n1 [Compound 393, N-(((1R,3R)-3-(3-fluoro-5-(trifluoromethyl)phenylsulfonyl)cyclobutyl)methyl)-6-(trifluoromethyl) imidazo[1,2-a]pyridine-2-carboxamide]",1070
